Measurements: patent US20170216297A1, “EFFICIENT INHIBITION OF HSP27” (TECHNISCHE UNIVERSITAET DRESDEN, priority 2014, published 2017)

Key:
HSP27 [1] = biological target: T1, HSP27 (Homo sapiens, UniProt P04792); assay: SpeedScreen gel filtration binding test (Sephadex G-25, detection by mass spectroscopy)
Description: For the experimental validation of low-molecular-weight compounds which act as potential HSP27 inhibitors according to the in silico prediction, a method based on gel filtration was employed. The method for detecting molecular bonds using gel filtration was described in 2004 as “SpeedScreen” [Muckenschnabel et al., 2004] and was adapted to meet the requirements of the invention. […] For the separation, PD SpinTraps G-25 from GE Healthcare were used. During the 2-minute centrifugation at 800×g (according to operating instructions), these columns allow molecules with a molecular weight of greater than or equal to 5000 g/mol to pass through, while smaller molecules are retained in the matrix. The target protein HSP27 has a molecular weight of 27000 g/mol and therefore passes through the matrix. […] Non-bound low-molecular-weight compounds are retained by the matrix. Molecules that have passed through the matrix can then be detected by mass spectroscopy. This enables “binders” to be differentiated from “non-binders”. For the experimental validation of low-molecular-weight compounds which act as potential HSP27 inhibitors according to the in silico prediction, a method based on gel filtration was employed. […] Molecules that have passed through the matrix can then be detected by mass spectroscopy. […]

HSP27 [2] = biological target: T1, HSP27; assay: Bio-layer interferometry (ForteBio Octet Red 384, biotinylated HSP27 on SSA sensors); type: binding; conditions: bio-layer interferometry; read-out: KD
Description: Bio-layer interferometry is a technique for detecting biomolecular interactions. It is an analytical technique that measures the optical interference of white light which is reflected by two surfaces: in each case, one surface consists of a layer of the immobilized target protein on the tip of the biosensor and one is an internal reference surface. The binding of ligands to the target protein alters the interference pattern and can be measured in real time.
For the measurements, an instrument of the ForteBio Octet Red 384 brand was used. The target protein HSP27 was biotinylated and bound to the appropriate sensors (SSA). […] The purine derivatives of general formula (I) or (II) pre-identified by means of in silico screening are employed for these measurements in a concentration range (KD) of between 333 μmol/L and 10 nmol/L.
For measurements by bio-layer interferometry, biotinylated HSP27 protein was first bound to Super-Streptavidin sensors (SSA, Fortebio). The loaded sensors were then incubated (“quenched”) with biocytin. As reference, unloaded SSA sensors were incubated with biocytin. In the case of a specific binding to HSP27 of the analyte to be measured, the loaded HSP27 sensor generates a stronger signal (response) than the concurrent reference sensor. After the “baseline” has been established by incubation with the reaction buffer (PBST 0.1% Tween 20 plus 3% DMSO), first the association and then the dissociation of the respective analyte is measured in real time. The analytes were measured in increasing concentrations in each case: 1.23-3.7-11.11-33.33-100-300 μM/l.

HSP27 [3] = biological target: T1, HSP27; assay: Capillary electrophoresis of the CS protein precipitates (precipitated citrate synthase as measure of HSP27 inhibition); type: biochemical; conditions: 10 μmol/L; 43° C. for 120 minutes; 750 μmol/L BVDU set at 1
Procedure: (§1) Since the heat-denatured protein aggregates of the citrate synthase from Example 1 are not water-soluble, these can be separated completely from the supernatant by means of centrifugation at room temperature at 16,000×g, 10 min. By using capillary electrophoresis, the compositions of the separated precipitates can be shown and quantified. The relative quantity of protein of precipitated citrate synthase serves as a measure of the efficacy of the test substances.
(§2) In each case, 481 nmol/L HSP27 and 1.44 μmol/L citrate synthase in 40 mmol/L HEPES buffer, pH 7.4, were employed. The relative quantity of protein of the precipitated citrate synthase in each case was normalized using a defined quantity of BSA as internal standard. The relative quantity of protein that precipitated when using 750 μmol/L BVDU was set at 1. The other test substances (2 representatives of phenothiazine derivatives of general formula (V), 2 representatives of purine derivatives of formula (I) or (II)) were each employed at a concentration of 10 μmol/L.
as §1, with “Example 2” for “Example 1”
as §2, with “nM” for “nmol/L”, “thymine” for “purine”, “were” for “were each”, “μmol/L in each case.” for “μmol/L.”
Otherwise, the experiments were performed as described above: […]

RPMI-8226 cells = assay: Development of resistance to bortezomib in RPMI-8226 cells; type: cell-based; conditions: bortezomib 0.2-0.4 ng/ml, plus 0.75 μmol/L inhibitor
Procedure: The cell line RPMI-8226 (DMSZ 402) is a “multiple myeloma” cell line and was chosen because bortezomib is employed as a standard therapy for multiple myeloma. RPMI-8226 cells respond to bortezomib, express HSP27 and develop resistance to Velcade. RPMI-8226 cells were seeded at a cell count of 100,000 cells/ml in each case and regularly passaged. […] In contrast, for RPMI 8226 cells that were treated with 30 μmol/L BVDU, a final cell count of 160,000 cells/ml was detected whereas the final cell count for the culture without the addition of an HSP27 inhibitor amounted to 350,000 cells/ml. As a control, RPMI 8226 cells were treated with the respective test substances alone, FIG. 4b.

T1 sequence (P04792 whole entry): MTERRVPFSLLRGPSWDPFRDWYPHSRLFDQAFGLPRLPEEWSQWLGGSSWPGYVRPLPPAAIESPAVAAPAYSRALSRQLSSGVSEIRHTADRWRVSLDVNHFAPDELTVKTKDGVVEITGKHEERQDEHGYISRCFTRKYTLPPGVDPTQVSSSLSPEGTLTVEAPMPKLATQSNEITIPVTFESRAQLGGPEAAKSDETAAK

Compound: CC(=O)c1ccc2c(c1)N(CCCN(C)C)c1ccccc1S2 [Acepromazine]
- Binding to HSP27 by SpeedScreen (passage through the Sephadex G-25 matrix) (HSP27 [1]): tested positively
- Kd (HSP27 [2]): 72 µM
- Rel. quantity of protein prec. CS (HSP27 [3]): 0.99
- development of resistance to bortezomib (RPMI-8226 cells): significantly inhibited
